Test results as given in ChEMBL document CHEMBL4421721, “Use of dynamin ring stabilizers” (2012).
Each block holds one compound with its values, some of them ahead of it. The source made the active and inactive calls. No cut-off for these calls is given here.

Key:
[1] = Inhibition of full-length native sheep brain dynamin 1 assessed as reduction in PS liposomes-induced GTPase activity using 20 nM full-length dynamin 1; design: species or system Ovis aries
[2] = Ring stabilizer activity at full-length native sheep brain dynamin 1 assessed as stimulation of GTPase activity in absence of PS liposomes using 200 nM full-length dynamin 1; design: species or system Ovis aries
[3] = Inhibition of full-length native sheep brain dynamin 1 assessed as reduction in PS liposomes-induced GTPase activity in presence of tween-80 using 7 nM full-length dynamin 1; design: species or system Ovis aries
[4] = Inhibition of full-length native sheep brain dynamin 1 assessed as reduction in PS liposomes-induced GTPase activity in absence of tween-80 using 7 nM full-length dynamin 1; design: species or system Ovis aries
Ovis aries [5] = organism: Ovis aries; assay: Ring stabilizer activity at full-length native sheep brain dynamin 1 assessed as stimulation of GTPase activity in absence of PS liposomes and in presence of tween-80
[6] = (§1) Ring stabilizer activity at full-length native sheep brain dynamin 1 assessed as stimulation of GTPase activity in absence of PS liposomes; design: species or system Ovis aries
Dynamin-1 (Homo sapiens) = molecular target: T1, Dynamin-1 (Homo sapiens) (UniProt Q05193); assay: Ring stabilizer activity at recombinant dynamin 1 dimeric GG2 form (unknown origin) assessed as stimulation of GTPase activity using 200 to 1000 nM full-length dynamin
T1 sequence (whole entry): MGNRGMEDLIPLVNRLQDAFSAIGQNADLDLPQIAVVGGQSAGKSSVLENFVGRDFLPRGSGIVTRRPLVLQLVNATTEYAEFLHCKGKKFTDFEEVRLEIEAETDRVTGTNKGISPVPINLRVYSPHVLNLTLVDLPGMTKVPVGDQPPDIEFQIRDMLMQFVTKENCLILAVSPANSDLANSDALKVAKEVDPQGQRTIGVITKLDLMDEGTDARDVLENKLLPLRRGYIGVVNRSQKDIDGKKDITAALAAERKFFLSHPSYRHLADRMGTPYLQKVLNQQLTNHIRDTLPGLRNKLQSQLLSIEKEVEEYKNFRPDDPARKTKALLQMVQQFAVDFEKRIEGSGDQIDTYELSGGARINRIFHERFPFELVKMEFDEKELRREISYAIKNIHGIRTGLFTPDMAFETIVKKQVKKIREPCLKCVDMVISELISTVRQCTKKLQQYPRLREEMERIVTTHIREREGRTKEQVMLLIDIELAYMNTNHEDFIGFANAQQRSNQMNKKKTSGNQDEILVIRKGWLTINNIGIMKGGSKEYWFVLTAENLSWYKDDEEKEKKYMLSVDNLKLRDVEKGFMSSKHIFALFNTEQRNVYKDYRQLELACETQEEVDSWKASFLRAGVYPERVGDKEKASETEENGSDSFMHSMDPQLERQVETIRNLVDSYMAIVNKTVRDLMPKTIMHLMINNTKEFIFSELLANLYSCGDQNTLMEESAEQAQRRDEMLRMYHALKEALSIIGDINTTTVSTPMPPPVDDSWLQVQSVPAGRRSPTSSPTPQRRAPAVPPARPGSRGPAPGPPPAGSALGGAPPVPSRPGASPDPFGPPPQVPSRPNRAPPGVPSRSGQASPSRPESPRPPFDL

Ovis aries [7] = organism: Ovis aries; assay: Induction of ring assembly of full-length native sheep brain dynamin 1 at 100 uM using 520 nM full-length dynamin in presence of 40 to 60 […] by Coomassie staining based SDS gel electrophoresis method
[8] = molecular target: T2, Dynamin-1 (Rattus norvegicus) (UniProt P21575); assay: Ring stabilizer activity at Dynamin-1 rat brain synaptosomes depolarised with KCl assessed as formation of trapped endocytic pits encircled by a single electron dense ring incubated for 30 mins by electron microscopic analysis; type: subcellular
T2 sequence (whole entry): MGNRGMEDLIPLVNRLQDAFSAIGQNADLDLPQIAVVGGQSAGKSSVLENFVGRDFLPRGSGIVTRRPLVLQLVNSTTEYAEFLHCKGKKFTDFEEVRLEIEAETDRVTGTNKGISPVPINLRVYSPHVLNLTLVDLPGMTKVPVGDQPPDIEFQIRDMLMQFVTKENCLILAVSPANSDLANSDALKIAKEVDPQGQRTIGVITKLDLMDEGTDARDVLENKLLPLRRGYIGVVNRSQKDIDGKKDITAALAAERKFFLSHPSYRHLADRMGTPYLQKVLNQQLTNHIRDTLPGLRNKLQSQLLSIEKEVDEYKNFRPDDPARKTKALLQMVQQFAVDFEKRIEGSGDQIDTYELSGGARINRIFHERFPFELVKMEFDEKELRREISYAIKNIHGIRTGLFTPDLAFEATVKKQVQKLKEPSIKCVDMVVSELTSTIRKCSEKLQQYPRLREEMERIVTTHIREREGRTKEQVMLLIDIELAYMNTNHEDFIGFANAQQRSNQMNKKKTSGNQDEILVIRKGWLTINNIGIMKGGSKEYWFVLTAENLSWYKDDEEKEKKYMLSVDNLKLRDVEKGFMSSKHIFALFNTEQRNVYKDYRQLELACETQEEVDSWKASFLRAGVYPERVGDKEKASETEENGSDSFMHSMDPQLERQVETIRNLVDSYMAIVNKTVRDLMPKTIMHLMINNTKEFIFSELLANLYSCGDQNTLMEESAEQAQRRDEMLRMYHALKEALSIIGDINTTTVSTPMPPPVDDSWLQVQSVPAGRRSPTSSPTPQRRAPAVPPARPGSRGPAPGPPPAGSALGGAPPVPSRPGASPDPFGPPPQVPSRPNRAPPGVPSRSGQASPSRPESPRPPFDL

Dynamin-2 (Homo sapiens) [9] = molecular target: T3, Dynamin-2 (Homo sapiens) (UniProt P50570); assay: Ring stabilizer activity at Dynamin-2 in human lymphoblasts assessed as accumulation in all cells of clathrin coated pits with highly elongated necks encircled by electron dense rings incubated for 30 mins by electron microscopic analysis; type: cell-based
T3 sequence (whole entry): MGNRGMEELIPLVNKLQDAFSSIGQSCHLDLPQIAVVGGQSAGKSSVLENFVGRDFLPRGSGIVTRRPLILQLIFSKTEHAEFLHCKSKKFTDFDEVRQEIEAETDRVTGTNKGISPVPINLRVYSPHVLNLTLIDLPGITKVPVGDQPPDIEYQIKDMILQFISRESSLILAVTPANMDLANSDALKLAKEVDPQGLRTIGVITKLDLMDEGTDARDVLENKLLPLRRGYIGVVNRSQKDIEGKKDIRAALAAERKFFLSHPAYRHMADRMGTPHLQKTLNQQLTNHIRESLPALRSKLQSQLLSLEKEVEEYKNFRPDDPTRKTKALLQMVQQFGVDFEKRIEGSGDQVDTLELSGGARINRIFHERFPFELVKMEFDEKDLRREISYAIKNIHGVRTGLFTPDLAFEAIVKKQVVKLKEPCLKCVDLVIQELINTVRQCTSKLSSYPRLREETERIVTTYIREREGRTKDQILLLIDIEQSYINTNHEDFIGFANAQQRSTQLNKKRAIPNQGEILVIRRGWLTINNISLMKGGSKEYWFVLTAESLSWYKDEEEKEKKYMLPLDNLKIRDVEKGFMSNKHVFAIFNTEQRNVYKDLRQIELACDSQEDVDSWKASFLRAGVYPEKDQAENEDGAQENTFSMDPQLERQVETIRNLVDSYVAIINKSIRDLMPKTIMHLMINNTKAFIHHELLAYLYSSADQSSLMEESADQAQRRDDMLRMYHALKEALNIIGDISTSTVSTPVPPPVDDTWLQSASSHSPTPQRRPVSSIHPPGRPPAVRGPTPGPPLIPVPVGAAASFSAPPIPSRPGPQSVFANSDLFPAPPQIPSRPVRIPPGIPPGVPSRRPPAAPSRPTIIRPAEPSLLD

Dynamin-2 (Homo sapiens) [10] = molecular target: T3, Dynamin-2 (Homo sapiens); assay: Ring stabilizer activity at Dynamin-2 in human lymphoblasts assessed as accumulation in all cells of clathrin coated pits with highly elongated necks incubated for 30 mins by electron microscopic analysis; type: cell-based
Ovis aries [11] = organism: Ovis aries; assay: Induction of ring assembly of full-length native sheep brain dynamin 1 at 300 uM using 520 nM full-length dynamin in presence of 40 mM NaCl by Coomassie staining based SDS gel electrophoresis method
Dynamin-2 (Homo sapiens) [12] = molecular target: Dynamin-2 (Homo sapiens) (UniProt P50570); assay: Inhibition of Dynamin-2 in human lymphoblasts incubated for 30 mins by electron microscopic analysis
Ovis aries [13] = organism: Ovis aries; assay: Inhibition of dis-assembly of pre-assembled full-length native sheep brain dynamin 1 pre-incubated in presence of PS liposomes followed compound addition at 5 uM and measured after 10 mins
Ovis aries [14] = organism: Ovis aries; assay: as §1
Dynamin-2 (Homo sapiens) [15] = molecular target: T3, Dynamin-2 (Homo sapiens); assay: Inhibition of Dynamin-2 in human lymphoblasts assessed as accumulation of clathrin coated pits at the plasma membrane incubated for 30 mins by electron microscopic analysis
[16] = Inhibition of full-length native sheep brain dynamin 1 assessed as reduction in PS liposomes-induced GTPase activity; design: species or system Ovis aries

Compound: N=c1oc2c(O)cccc2cc1C(=O)NCCCNC(=O)c1cc2cccc(O)c2oc1=N
IC50 [1]: 36.6 µM | EC50 [2]: Not Active

Compound: O=C(N/N=C/c1cc(O)c(O)c(O)c1)c1cc2ccccc2cc1O
IC50 ([3]; read-out: IC50): 468 µM | IC50 [4]: 4.4 µM

Compound: COc1cc(/C=N/NC(=O)c2cc3ccccc3cc2O)c(O)cc1O
IC50 ([3]; read-out: IC50): 1170 µM | IC50 [4]: 3.6 µM

Compound: CCCCCCNC(=O)/C(C#N)=C/c1c(C)n(CCCN(C)C)c2ccccc12
Activity (Ovis aries [5]): Active

Compound: N=c1oc2cc(O)c(O)cc2cc1C(=O)NCCNC(=O)c1cc2cc(O)c(O)cc2oc1=N
IC50 [1]: 0.33 µM | EC50 ([2]; read-out: EC50): 31 µM

Compound: N=c1oc2cc(O)c(O)cc2cc1C(=O)NCCCNC(=O)c1cc2cc(O)c(O)cc2oc1=N
IC50 [1]: 0.26 µM | EC50 [6]: 4 µM

Compound: N#C/C(=C\c1ccc(O)c(O)c1)C(=O)NCCCNC(=O)/C(C#N)=C/c1ccc(O)c(O)c1
Activity (Dynamin-1 (Homo sapiens)): inactive | Activity (Ovis aries [7]): Active | Activity [8]: Active | Activity (Ovis aries [5]): Active | Activity (Dynamin-2 (Homo sapiens) [9]): Active | Activity (Dynamin-2 (Homo sapiens) [10]): Active | Activity (Ovis aries [11]): Active

Compound: N=c1oc2cc(O)ccc2cc1C(=O)NCCCNC(=O)c1cc2ccc(O)cc2oc1=N
IC50 [1]: 17.3 µM | EC50 ([2]; read-out: EC50): 40 µM

Compound: N=c1oc2c(O)c(O)ccc2cc1C(=O)NCCCNC(=O)c1cc2ccc(O)c(O)c2oc1=N
Activity (Dynamin-1 (Homo sapiens)): inactive | IC50 [1]: 0.45 µM | EC50 [6]: 1 µM

Compound: CCCCCCCCNC(=O)/C(C#N)=C/c1c(C)n(CCN(C)C)c2ccccc12
Activity (Ovis aries [5]): Active

Compound: CCCCCCCCCCNC(=O)/C(C#N)=C/c1cn(CCN(C)C)c2ccccc12
Activity (Ovis aries [5]): Active

Compound: CCCCCCCCNC(=O)/C(C#N)=C/c1cn(CCCN(C)C)c2ccccc12
inhibition (Ovis aries [13]): Active | Activity (Ovis aries [5]): Active | Activity (Ovis aries [14]): inactive

Compound: O=C(N/N=C/c1cc(O)c(O)cc1O)c1cc2ccccc2cc1O
IC50 ([3]; read-out: IC50): 2.7 µM | IC50 [16]: 0.3 µM | Activity (Ovis aries [5]): inactive | Activity (Ovis aries [14]): Active

Compound: O=C(N/N=C/c1cccc(O)c1O)c1cc2ccccc2cc1O
IC50 ([3]; read-out: IC50): 19.8 µM | IC50 [4]: 22.1 µM

The next lines start with the values.

IC50 [3]: Not Active | IC50 [4]: 39.8 µM
Compound: O=C(N/N=C/c1cc(O)cc(O)c1)c1cc2ccccc2cc1O

inhibition (Dynamin-2 (Homo sapiens) [12]): Active
Compound: CETRIMIDE

IC50 ([3]; read-out: IC50): 200 µM | IC50 [4]: 7.3 µM
Compound: O=C(N/N=C/c1ccc(O)cc1O)c1cc2ccccc2cc1O

Activity (Ovis aries [5]): Active
Compound: CCCCCCNC(=O)/C(C#N)=C/c1c(C)n(CCN(C)C)c2ccccc12

Activity (Ovis aries [5]): Active
Compound: CCCCCCCCCCCCCCCCCC[N+](C)(C)C

inhibition (Dynamin-2 (Homo sapiens) [15]): Active | Activity (Ovis aries [14]): Active
Compound: O=C(N/N=C/c1ccc(O)c(O)c1)c1cc2ccccc2cc1O

IC50 [3]: Not Active | IC50 [4]: 3.1 µM
Compound: O=C(N/N=C/c1ccc(O)c(O)c1O)c1cc2ccccc2cc1O
